In patent US12005045B2, “Method of modulating TIGIT and PD-1 signalling pathways using 1,2,4-oxadiazole compounds” (AURIGENE ONCOLOGY LIMITED, priority 2018, dated 2024):

How the values were obtained:
PD-L1 = target: T1, PD-L1 (Mus musculus, UniProt Q9EP73); assay: Rescue of mouse splenocyte proliferation in the presence of recombinant PD-L1 (CFSE proliferation assay); type: cell-based; conditions: 100 nM compound; anti-CD3/CD28 stimulated mouse splenocytes + PD-L1; stimulated splenocytes = 100%; read-out: Percent rescue of splenocyte proliferation at 100 nM PD-L1 based assay
T1 construct: Fc (Fc chimera); purchased R&D Systems 1019-B7-100
Description: Recombinant mouse PD-L1 (rm-PDL-1, cat no: 1019-B7-100; R&D Systems) were used as the source of PD-L1.
Mouse splenocytes harvested from 6-8 weeks old C57 BL6 mice; RPMI 1640 (GIBCO, Cat #11875); DMEM with high glucose (GIBCO, Cat #D6429); Fetal Bovine Serum [Hyclone, Cat #SH30071.03]; Penicillin (10000 unit/mL)-Streptomycin (10,000 μg/mL) Liquid (GIBCO, Cat #15140-122); MEM Sodium Pyruvate solution 100 mM (100×), Liquid (GIBCO, Cat #11360); Nonessential amino acid (GIBCO, Cat #11140); L-Glutamine (GIBCO, Cat #25030); Anti-CD3 antibody (eBiosciences—16-0032); Anti-CD28 antibody (eBiosciences—16-0281); ACK lysis buffer (1 mL) (GIBCO, Cat #-A10492); Histopaque (density-1.083 gm/mL) (SIGMA 10831); Trypan blue solution (SIGMA-T8154); 2 mL Norm Ject Luer Lock syringe-(Sigma 2014-12); 40 μm nylon cell strainer (BD FALCON 35230); Hemacytometer (Bright line-SIGMA Z359629); FACS Buffer (PBS/0.1% BSA): Phosphate Buffered Saline (PBS) pH 7.2 (HiMedia TS1006) with 0.1% Bovine Serum Albumin (BSA) (SIGMA A7050) and sodium azide (SIGMA 08591); 5 mM stock solution of CFSE: CFSE stock solution was prepared by diluting lyophilized CFSE with 180 μL of Dimethyl sulfoxide (DMSO C2H6SO, SIGMA-D-5879) and aliquoted in to tubes for further use. Working concentrations were titrated from 10 μM to 1 μM. (eBioscience-650850-85); 0.05% Trypsin and 0.02% EDTA (SIGMA 59417C); 96-well format ELISA plates (Corning CLS3390); BD FACS caliber (E6016); Recombinant mouse B7-H1/PDL1 Fc Chimera, (rm-PD-L1 cat no: 1019-B7-100).
Splenocytes harvested in a 50 mL falcon tube by mashing mouse spleen in a 40 μm cell strainer were further treated with 1 mL ACK lysis buffer for 5 min at room temperature. After washing with 9 mL of RPMI complete media, cells were re-suspended in 3 mL of 1×PBS in a 15 mL tube. 3 mL of Histopaque was added carefully to the bottom of the tube without disturbing overlaying splenocyte suspension. After centrifuging at 800×g for 20 min at room temperature, the opaque layer of splenocytes was collected carefully without disturbing/mixing the layers. Splenocytes were washed twice with cold 1×PBS followed by total cell counting using Trypan Blue exclusion method and used further for cell based assays.
Splenocytes were cultured in RPMI complete media (RPMI+10% fetal bovine serum+1 mM sodium pyruvate+10,000 units/mL penicillin and 10,000 μg/mL streptomycin) and maintained in a CO2 incubator with 5% CO2 at 37° C.
CFSE is a dye that passively diffuses into cells and binds to intracellular proteins. 1×10^6 cells/mL of harvested splenocytes were treated with 5 μM of CFSE in pre-warmed 1×PBS/0.1% BSA solution for 10 min at 37° C. Excess CFSE was quenched using 5 volumes of ice-cold culture media to the cells and incubated on ice for 5 min. CFSE labelled splenocytes were further given three washes with ice cold complete RPMI media. CFSE labelled 1×10^5 splenocytes added to wells containing either MDA-MB231 cells (1×10^5 cells cultured in high glucose DMEM medium) or recombinant human PDL-1 (100 ng/mL) and test compounds. Splenocytes were stimulated with anti-mouse CD3 and anti-mouse CD28 antibody (1 μg/mL each), and the culture was further incubated for 72 h at 37° C. with 5% CO2. Cells were harvested and washed thrice with ice cold FACS buffer and % proliferation was analysed by flow cytometry with 488 nm excitation and 521 nm emission filters.
Percent splenocyte proliferation was analysed using cell quest FACS program and percent rescue of splenocyte proliferation by compound was estimated after deduction of % background proliferation value and normalising to % stimulated splenocyte proliferation (positive control) as 100%. • Stimulated splenocytes: Splenocytes+anti-CD3/CD28 stimulation • Background proliferation: Splenocytes+anti-CD3/CD28+PD-L1 • Compound proliferation: Splenocytes+anti-CD3/CD28+PD-L1+Compound • Compound effect is examined by adding required conc. of compound to anti-CD3/CD28 stimulated splenocytes in presence of ligand (PDL-1).

mPVR = assay: Rescue of mouse CD8+ T-cell proliferation in the presence of recombinant mPVR (IL-2 ELISA readout); type: cell-based; conditions: mouse CD8+ T cells, anti-CD3 + mouse PVR, anti-TIGIT antibody = 100%; for Percent rescue of CD8+ T-cell proliferation mPVR based assay: 1000 nM compound; for Percent rescue of CD8+ T-cell proliferation at 100 nM mPVR based assay: 100 nM compound
Text: 96-well plates, Corning; RPMI, Cat No. R6504, Sigma; Easy Sep magnet, Cat No. 18000, Stem Cell; Easy Sep Mouse CD8 T Cell isolation kit, Cat No. 19853, Stem Cell; Corning® cell strainer, (70 μm) Cat No. 431751, Corning; Purified anti-mouse CD3 Abs, Cat No. 100201, Biolegend; Recombinant mouse PVR, Cat No. 6909-CD-050, R&D Systems; Recombinant mouse anti-TIGIT Ab, Cat No. 142101, Biolegend; FBS, Cat No. SH30070.03, Hyclone; Mouse IL-2 ELISA Kit, R&D System Cat no DY402; Mouse IFN-γ ELISA Kit R&D Systems Cat no. DY485; Sterile PBS; FicollHistopaque, Cat No. 10831-6X100ML, Sigma
Spleen was collected from C57BL/6 male mice with 6-8 weeks of age. Splenocytes were isolated by slowly crushing the spleen between the sterile glass slides in RPMI+10% FBS and passing it through the 70 μm strainer. Cell suspension was centrifuged at 912×g for 10 minutes at room temperature and discarded the supernatant. Splenocytes were resuspended in RPMI+10% FBS (Complete RPMI). Resuspended splenocytes were overlaid on Ficoll Histopaque-1083 in a 50 ml Tarson tubes. Overlaid cells were centrifuged at 584×g for 30 minutes at room temperature without break. A clear buffy coat was carefully aspirated into sterile PBS. Isolated cells were washed using PBS and resuspended in complete RPMI medium to get a suspension of about 5×10^7 cells/ml. Mouse CD8^+ T cell were isolated by using EasySep Mouse CD8+ T Cell Isolation kit, as per manufacturers instruction.
96-well cell culture plate was coated with Purified anti-mouse CD3, 1 μg/mL (50 μL/well) and Recombinant Mouse PVR Fe Chimera, 0.5 μg/mL (50 ul/well) for 4 hours at 37° C. After 4 hours, the coated plate was washed with sterile PBS. Mouse CD8+ T cells isolated from spleen were added at 0.2 million/well ([…]) concentration into a 96-well cell culture plate. Test compound at various concentrations prepared in water or DMSO was added in respective wells (20 μL/well) so as to make the total volume 200 μL/well. The plates were incubated in 37° C. CO2 incubator for 3 days. On the 3rd day, cell supernatant was collected to determine cytokine levels (IL-2 or IFN-7) using ELISA. The extent of CD8+ T cell proliferation in presence or absence of test compound was measured by analysing the amount of IL-2 or IFN-7 in the culture supernatants using mouse IL-2 or IFN-7 ELISA kits as per manufacture instructions. Recombinant mouse anti-TIGIT antibody was used as positive control to determine the increased proliferation of CD8+ T cells.
Percent CD8+ T cell proliferation was analysed by measuring IL-2 levels using IL-2 ELISA kit and percent rescue of CD8+ T cell by test compound was estimated after deduction of % background proliferation value and normalising to % stimulated CD8+ T cell proliferation by anti-TIGIT antibody (positive control) as 100%.

[1] = tested on: CT26 syngeneic colon adenocarcinoma; assay: Efficacy study in the CT-26 syngeneic (Balb/c male) mouse tumor model; type: in vivo; conditions: 14 days, CT26 tumor bearing mice
Description: The objective of this study was to evaluate anti-tumor activity of Compound 19 in a CT26 syngeneic colon adenocarcinoma model.
CT26 cell line was procured from ATCC, maintained and stored at ADTL-Bangalore cell line repository. One vial of CT26 cell line was thawed and revived in T-150 cm^2 flask with RPMI medium supplemented with 10% FBS (Gibco), 10 mM 4-(2-hydroxyethyl)-1-piperazineethanesulfonic acid (HEPES), 1 mM sodium pyruvate, 4.5 g/L Glucose, 1% penicillin streptomycin (Sigma) and 1.5 g/L sodium bicarbonate. The flask with CT26 cells at cell density 0.25 million/ml was incubated at 37±1° C. incubator supplied with 5% carbon dioxide. Cell expansion was carried out in T-150 cm^2 flasks and cell density was maintained between 0.25 […], with cell splitting every alternate day. […] Supernatant was discarded and cell pellets were suspended in media and counted using hemocytometer. […]
When the mean tumor volumes reached approximately 30±5 mm^3, the animals were randomized based on tumor volumes into five groups (G1 to G5) of ten animals (N=10) each as mentioned below. The treatment was continued for a period of 14 days after which the overall efficacy and tolerability were evaluated based on tumor volume and body weight changes observed during the treatment period. […]

T1 sequence (Q9EP73 19-238 limits assumed): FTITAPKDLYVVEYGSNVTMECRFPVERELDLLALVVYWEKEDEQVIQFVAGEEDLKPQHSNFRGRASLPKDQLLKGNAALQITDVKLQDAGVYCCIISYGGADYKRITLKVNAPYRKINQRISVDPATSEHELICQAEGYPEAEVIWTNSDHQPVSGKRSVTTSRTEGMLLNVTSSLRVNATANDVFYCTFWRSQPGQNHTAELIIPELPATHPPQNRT

Row | Structure (SMILES) | activation at 0.1 µM (PD-L1) | Percent rescue of CD8+ T-cell proliferation at 100 nM mPVR based assay (mPVR) | other results
1 | CC(O)[C@H](NC(=O)NCc1nc([C@@H](N)CCC(=O)O)no1)C(=O)O (stereo partly shown) [Compound 8] |  | 14.6% | 
2 | CC(O)[C@H](NC(=O)NCc1nc([C@@H](N)CC(=O)O)no1)C(=O)O (stereo partly shown) [Compound 2] | 84% | 14% | 
3 | CC(O)[C@H](N)c1noc([C@@H](N)Cc2ccccc2)n1 (stereo partly shown) [Compound 16] |  |  | Percent rescue of CD8+ T-cell proliferation mPVR based assay (mPVR): 72 (@ 1000 nM) %
4 | CC(O)[C@H](NC(=O)N[C@@H](Cc1ccc(O)cc1)C(=O)O)c1nc([C@@H](N)Cc2c[nH]cn2)no1 (stereo partly shown) [Compound 3] | 11% | 59% | 
5 | N[C@@H](Cc1ccc(O)cc1)c1noc([C@@H]2CCCN2C(=O)N[C@@H](CC(=O)O)C(=O)O)n1 [Compound 1, ((S)-2-(3-((S)-1-amino-2-(4-hydroxyphenyl)ethyl)-1,2,4-oxadiazol-5-yl)pyrrolidine-1-carbonyl)-L-aspartic acid] | 17% | 98% | 
6 | CC(O)[C@H](N)c1noc([C@@H](NC(=O)N[C@@H](Cc2ccccc2)C(=O)O)C(C)O)n1 (stereo partly shown) [Compound 9] |  | 56.9% | 

Second part, led by results:

Row | activation at 0.1 µM (PD-L1) | Structure (SMILES) | Percent rescue of CD8+ T-cell proliferation at 100 nM mPVR based assay (mPVR) | other results
7 | 27% | CC(C)[C@H](N)c1noc([C@@H](NC(=O)N[C@@H](CCC(N)=O)C(=O)O)C(C)O)n1 (stereo partly shown) [Compound 5] |  | Percent rescue of CD8+ T-cell proliferation mPVR based assay (mPVR): (17 @ 1000 nM) %
8 | 15% | CCC(C)[C@H](NC(=O)N[C@@H](CS)c1nc([C@@H](N)Cc2ccccc2)no1)C(=O)O (stereo partly shown) [Compound 6] |  | 
9 | 99% | CC(O)[C@H](N)c1noc([C@H](Cc2ccc(O)cc2)NC(=O)N2CCC[C@H]2C(=O)O)n1 (stereo partly shown) [Compound 19] | 72% | tumor growth inhibition ([1]; 10 mg/kg qd oral): 42%; tumor growth inhibition ([1]; 30 mg/kg qd oral, statistically significant compared to vehicle): 53%
10 | 22% | N[C@@H](CCC(=O)O)c1noc([C@H](Cc2ccc(O)cc2)NC(=O)N[C@@H](Cc2ccccc2)C(=O)O)n1 [Compound 4] |  | 
11 | 39% | CC(O)[C@H](NC(=O)N[C@@H](Cc1cnc[nH]1)c1nc([C@@H](N)Cc2ccc(O)cc2)no1)C(=O)O (stereo partly shown) [Compound 7] |  | 
12 | 35% | CC(O)[C@H](N)c1noc([C@H](Cc2ccccc2)NC(=O)N2CCC[C@H]2C(=O)O)n1 (stereo partly shown) [Compound 20] |  | 
